Measured values from ChEMBL document CHEMBL3045041, “Synthesis of novel aryl(4-substituted pyridin-3-yl)methyl carbamates and their herbicidal activity” (J Pestic Sci, 2012).

How the values were obtained:
Echinochloa oryzicola [1] = test: Herbicidal activity against Echinochloa oryzicola under greenhouse condition compound treated at 2.5 leaf stage measured after 14 to 20 days; assay type: functional
[2] = system: Schoenoplectiella juncoides; test: Herbicidal activity against Schoenoplectiella juncoides under greenhouse condition compound treated at 0.5 leaf stage measured after 14 to 20 days; assay type: functional
Echinochloa oryzicola [3] = test: Herbicidal activity against Echinochloa oryzicola under greenhouse condition compound treated at emergence stage measured after 14 to 20 days; assay type: functional
Oryza sativa = test: Phytotoxicity against Oryza sativa cv. Kinuhikari (rice) planted at 3 cm depth measured after 20 to 25 days; assay type: organism-based; details: in vivo

| SMILES | ED80 (Echinochloa oryzicola [1]) [gAi/ha] | ED80 [2] [gAi/ha] | ED80 (Echinochloa oryzicola [3]) [gAi/ha] | ED20 (Oryza sativa) [gAi/ha] |
| --- | --- | --- | --- | --- |
| CNC(=O)OC(c1cnccc1C(F)(F)F)c1cccc2ccccc12 (stereo unspecified) | 250 | 500 | 63 | 2000 |
| CN(C)C(=O)OC(c1cnccc1Cl)c1cccc2ccccc12 (stereo unspecified) | >500 | 63 | 63 | 1000 |
| O=C(OC(c1cnccc1C(F)(F)F)c1cccc2ccccc12)n1ccnc1 (stereo unspecified) | – | >1000 | >500 | – |
| CN(C)C(=O)OC(c1cnccc1C(F)(F)F)c1c(Cl)ccc2c1OCO2 (stereo unspecified) | 500 | 500 | 63 | > 2000 |
| Cc1ccncc1C(OC(=O)N(C)C)c1cccc2ccccc12 (stereo unspecified) | – | >1000 | 500 | 2000 |
| CN(C)C(=O)OC(c1cnccc1C#N)c1cccc2ccccc12 (stereo unspecified) | 250 | 250 | 63 | > 1000 |
| CN(C)C(=O)OC(c1cnccc1C(F)(F)F)c1cnccc1C(F)(F)F | – | 63 | 63 | < 250 |
| COc1ccncc1C(OC(=O)N(C)C)c1cccc2ccccc12 (stereo unspecified) | >1000 | >1000 | >1000 | > 2000 |
| CN(C)C(=O)OC(c1cnccc1C(F)(F)F)c1ccnc2ccccc12 (stereo unspecified) | – | 500 | 125 | 2000 |
